The nature of the first data set: in vitro. The following applies: human, hela cells.
For orientation: viability means a read-out of living cells in per cent, often relative to untreated cells. As to `O=C(Nc1ccc(Cl)cc1)c1cccc(-n2cnnn2)c1` [CBK287791], the viability at 28.5 h, 10 µM came out at 84.2%.

Staying with this data set, now noted: human, hela cells, % viability.
Take `Cc1ccc(NC(=O)c2cnc(SCc3ccc(F)cc3)n(C)c2=O)cc1C` [CBK287674]: the viability at 28.5 h, 10 µM worked out at 90.5%.
For the compound `O=C(CSc1nnc2ccc(-c3ccccc3)nn12)N1CCCCC1` [CBK287678], the viability at 28.5 h, 10 µM came to 100%.
With `Cc1cc(NC(=O)CSc2nnc3ccc(-c4ccccc4)nn23)no1` [CBK287679], the viability at 28.5 h, 10 µM amounted to 108%.
For the compound `COc1ccc(-c2ccc3nnc(SCc4cccnc4)n3n2)cc1` [CBK287680], the viability at 28.5 h, 10 µM was 108%.
With `O=C(Nc1cccc(-c2ccc3nncn3n2)c1)c1ccc(F)cc1` [CBK287682], the viability at 28.5 h, 10 µM turned out to be 87.1%.
Still for that read-out and setting: in the case of `O=C(CSc1nnc2[nH]c(=O)ccn12)NCc1ccccc1Cl` [CBK287684] it was 95.1%.
Consider `Cc1ccccc1-n1ncc2c(=O)n(Cc3ccccc3)cnc21` [CBK287690], for which the viability at 28.5 h, 10 µM turned out to be 96.9%.
For the compound `O=C(Cn1cnc2c(cnn2-c2cccc(Cl)c2)c1=O)N1CCCCC1` [CBK287691], the viability at 28.5 h, 10 µM turned out to be 83.3%.
Consider `Cc1cccc(-n2ncc3c(=O)n(CC(=O)NC4CCCCC4)cnc32)c1C` [CBK287694], for which the viability at 28.5 h, 10 µM came out at 104%.
In the case of `Cc1ccc(-n2ncc3c(=O)n(Cc4ccccc4C)cnc32)c(C)c1` [CBK287695], the viability at 28.5 h, 10 µM came out at 107%.
As for `CC(=O)N(Cc1cccnc1)c1nc2cc3c(cc2s1)OCCO3` [CBK287696], the viability at 28.5 h, 10 µM turned out to be 99.9%.
On to `COc1cccc(C(=O)Nc2nc(-c3ccccc3)cs2)c1OC` [CBK287697], for which the viability at 28.5 h, 10 µM was 104%.
For `COc1cc(-c2nnc(NC(=O)c3ccc(C)cc3)o2)cc(OC)c1OC` [CBK287699], the viability at 28.5 h, 10 µM came to 92.2%.
As to `CCCC(=O)Nc1nnc(-c2ccc(C)cc2C)o1` [CBK287700], the viability at 28.5 h, 10 µM is 107%.
As for `COc1cc2nc(NC(=O)C3COc4ccccc4O3)sc2cc1OC` (stereo not shown) [CBK287702], the viability at 28.5 h, 10 µM came out at 109%.
Same read-out and setting: in the case of `Cc1ccc(-c2csc(NC(=O)CS(=O)(=O)c3ccccc3)n2)cc1` [CBK287707] it was 89.2%; in that of `Cc1ccc(NC(=O)c2cnc3sc(C)cn3c2=O)cc1` [CBK287711], 97.8%; in that of `COc1ccc(NC(=O)c2cnc3sc(C)cn3c2=O)c(OC)c1` [CBK287712], 87%.
On to `CS(=O)(=O)c1ccc(C(=O)Nc2nc(-c3ccccc3)cs2)cc1` [CBK287716], for which the viability at 28.5 h, 10 µM came out at 102%.
In the case of `O=C(CSc1ccc(-c2ccc(-n3ccnc3)cc2)nn1)NCc1ccco1` [CBK287717], the viability at 28.5 h, 10 µM came out at 62.2%.
In the case of `CCC(=O)N1CCN(c2nc3ccc(OC)cc3s2)CC1` [CBK287721], the viability at 28.5 h, 10 µM amounted to 92.2%.
As for `O=C(c1cnccn1)N1CCN(c2nc3c(F)cccc3s2)CC1` [CBK287722], the viability at 28.5 h, 10 µM was determined as 91.6%.
The same measure, in the same setting: in the case of `COc1ccc(NC(=O)C(=O)NCc2ccncc2)cc1` [CBK287723] it was 105%; in that of `COc1ccccc1NC(=O)C(=O)NCc1cccnc1` [CBK287724], 97.5%; in that of `Cc1ccc(C(=O)Nc2cccc(-n3c(C)nc4ccccc4c3=O)c2)cc1` [CBK287725], 104%.
For the compound `CS(=O)(=O)c1cccc(-c2nnc(NC(=O)c3ccccc3)o2)c1` [CBK287726], the viability at 28.5 h, 10 µM was found to be 82.4%.
Consider `COc1ccccc1Nc1nc(N2CCOCC2)nc(N2CCOCC2)n1` [CBK287731], for which the viability at 28.5 h, 10 µM was 111%.
For the compound `Cc1ccc(Nc2nc(N3CCOCC3)nc(N3CCOCC3)n2)cc1` [CBK287732], the viability at 28.5 h, 10 µM turned out to be 118%.
Regarding `O=C(CSc1nc(-c2ccccc2)cc(=O)[nH]1)NCc1ccccc1` [CBK287734], the viability at 28.5 h, 10 µM was 82.7%.
Same read-out and setting: the figure for `O=C(Cc1ccc(F)cc1)Nc1nc(-c2cccs2)cs1` [CBK287736] is 82.3%; for `Cc1cc2nc(N3CCN(C(=O)c4ccc(C#N)cc4)CC3)sc2cc1C` [CBK287737] it is 98.8%.
With `O=C(Nc1ccncc1)c1cccn(Cc2ccccc2F)c1=O` [CBK287738], the viability at 28.5 h, 10 µM came to 111%.
In the case of `COc1cccc(-n2c(=O)[nH]c3c(C(N)=O)nc(-c4ccccc4)nc32)c1` [CBK287740], the viability at 28.5 h, 10 µM worked out at 121%.
Regarding `O=C(CSc1nnc(-c2cccnc2)o1)Nc1ccccc1` [CBK287742], the viability at 28.5 h, 10 µM was found to be 82.6%.
Regarding `COc1ccccc1NC(=O)CSc1nnc(-c2ccncc2)o1` [CBK287743], the viability at 28.5 h, 10 µM is 87%.
In the case of `O=C(NCc1n[nH]c(=O)c2ccccc12)Nc1ccc(F)cc1` [CBK287744], the viability at 28.5 h, 10 µM worked out at 94.2%.
`CC(=O)Nc1ccc(Nc2cc(C)nc(-n3nc(C)cc3C)n2)cc1` [CBK287746]: the viability at 28.5 h, 10 µM is 103%.
Take `CCSc1c(C)cnc2c1c(=O)n(C)c(=O)n2C` [CBK287748]: the viability at 28.5 h, 10 µM came to 99.8%.
On the same count and under the same terms, the figure for `O=C(Nc1ccc2ncsc2c1)C1COc2ccccc2O1` (stereo not shown) [CBK287750] is 95.6%.
For `COc1ccc(SCC(=O)Nc2nccs2)cc1` [CBK287751], the viability at 28.5 h, 10 µM was found to be 83.4%.
Turning to `O=C(NCCc1c[nH]c2ccccc12)C(=O)Nc1ccncc1` [CBK287754], the viability at 28.5 h, 10 µM was 101%.
Take `O=C(Nc1nc(-c2cc3ccccc3o2)cs1)c1ccc(F)cc1` [CBK287756]: the viability at 28.5 h, 10 µM was 114%.
Take `Cc1ccc(-c2cnc(SCC(N)=O)n2-c2ccccc2)cc1` [CBK287757]: the viability at 28.5 h, 10 µM turned out to be 113%.
The same measure, in the same setting: the figure for `CC(=O)c1sc(NC(=O)Cc2ccc(C)cc2)nc1C` [CBK287760] is 89.3%; for `CCCC(=O)Nc1nc(-c2ccc(C)cc2)c(C)s1` [CBK287763] it is 110%.
`Cc1c(C(=O)Nc2nccs2)nnn1-c1ccccc1` [CBK287766]: the viability at 28.5 h, 10 µM is 83.9%.
As to `O=C(CCCn1c(=O)[nH]c2ccsc2c1=O)Nc1ccc(F)cc1` [CBK287769], the viability at 28.5 h, 10 µM worked out at 93.3%.
Same read-out and setting: in the case of `CCOc1ccc(NC(=O)c2c(O)c3ccccc3n(CC)c2=O)cc1` [CBK287771] it was 107%.
As to `CC(=O)c1ccc(NC(=O)Cn2cnc3c(sc4ncccc43)c2=O)cc1` [CBK287773], the viability at 28.5 h, 10 µM came out at 95.4%.
For `CC(=O)Nc1c(-c2ccc(C)cc2)c(=O)c2ccccc2n1C` [CBK287775], the viability at 28.5 h, 10 µM came to 88%.
Still for that read-out and setting: in the case of `CN(C)CCCN1C(=O)C(O)=C(C(=O)c2ccncc2)C1c1ccccc1` (stereo not shown) [CBK287779] it was 107%.
As to `COc1ccc2c(=O)c3c(oc2c1)C(=O)N(CCN(C)C)C3c1ccccn1` (stereo not shown) [CBK287781], the viability at 28.5 h, 10 µM turned out to be 98.3%.
With `CCc1ccc(S(=O)(=O)Nc2cccnc2)cc1` [CBK287782], the viability at 28.5 h, 10 µM stood at 87.5%.
With `NC(=O)C1CCN(c2ncnc3c2oc2ccccc23)CC1` [CBK287789], the viability at 28.5 h, 10 µM was 87.6%.
Take `NC(=O)CSc1nnc2ccc3ccccc3n12` [CBK287794]: the viability at 28.5 h, 10 µM is 110%.
As to `O=C(c1ccc(F)cc1)N1CCN(c2ccccn2)CC1` [CBK287795], the viability at 28.5 h, 10 µM was 104%.
Take `Cc1ccccc1-n1ncc2c1ncn1nc(-c3ccccc3)nc21` [CBK287797]: the viability at 28.5 h, 10 µM is 94.3%.
For `COc1ccc(OCC(=O)Nc2nonc2-c2ccccc2)cc1` [CBK287798], the viability at 28.5 h, 10 µM came out at 93.9%.
Take `Cc1ccc2nc(C)cc(NC(=O)c3ccncc3)c2c1` [CBK287801]: the viability at 28.5 h, 10 µM turned out to be 81.5%.
The same measure, in the same setting: the figure for `Cc1ccc(C2=NN(C(=O)CCC(=O)O)C(c3ccc4nccnc4c3)C2)cc1` (stereo not shown) [CBK287802] is 109%; for `O=C(Nc1ccncc1)c1ccc(N2C(=O)c3ccccc3C2=O)cc1` [CBK287803] it is 113%.
On the same count and under the same terms, the figure for `COc1ccccc1-c1cc2nc(C)cc(Nc3ccccc3)n2n1` [CBK287806] is 97.3%; for `Cc1cc(C)cc(NC(=O)Cn2cnc3c(sc4ccccc43)c2=O)c1` [CBK287807] it is 82.5%.
For `O=c1c2[nH]c3ccccc3c2ncn1Cc1ccccc1` [CBK287809], the viability at 28.5 h, 10 µM was 103%.
As for `O=c1c2scc(-c3cccc(F)c3)c2ncn1Cc1ccc(F)cc1` [CBK287810], the viability at 28.5 h, 10 µM came out at 100%.
The same measure, in the same setting: in the case of `Cn1nc2n(C)c(=O)c3ccc(C(=O)NC4CCCC4)cc3n2c1=O` [CBK287811] it was 113%; in that of `O=c1cc(Cn2ccnc2)c2cc3c(cc2o1)CCC3` [CBK287813], 88.8%; in that of `COc1cc2c(cc1OC)CN(C(=O)CSc1nnc3ccccn13)CC2` [CBK287814], 94.8%.
The same measure, in the same setting: in the case of `Cc1cccc2c1ncn1c(=O)n(CC(=O)Nc3cccc(Cl)c3)nc21` [CBK287815] it was 81.8%.
Still for that read-out and setting: the figure for `COc1cccc(Nc2c(C(=O)N3CCCCC3)cnc3nc(C)ccc23)c1` [CBK287817] is 96%.
Take `O=C(Cn1c(=O)[nH]c2c(oc3ccccc32)c1=O)Nc1ccccc1` [CBK287818]: the viability at 28.5 h, 10 µM amounted to 104%.
Consider `Cc1cc(C)c(NC(=O)CSc2ncccc2-c2nc(C)no2)c(C)c1` [CBK287821], for which the viability at 28.5 h, 10 µM stood at 86.7%.
Regarding `O=C(Cn1cnc(-c2noc(-c3cccnc3)n2)c1)Nc1ccc(Cl)cc1` [CBK287822], the viability at 28.5 h, 10 µM was determined as 96.2%.
In the case of `O=C(NCc1ccco1)c1ccc2c(=O)n(-c3ccccc3)c(=O)[nH]c2c1` [CBK287823], the viability at 28.5 h, 10 µM worked out at 83.7%.
Take `COc1ccc(OC)c(-n2c(=O)[nH]c3ccccc3c2=O)c1` [CBK287825]: the viability at 28.5 h, 10 µM was determined as 110%.
As to `COc1ccc2nc(-c3cccc(NC(=O)c4ccc(F)cc4)c3)cn2n1` [CBK287826], the viability at 28.5 h, 10 µM came out at 104%.
In the case of `COc1ccc2nc(-c3ccc(F)c(NC(=O)c4ccccc4)c3)cn2n1` [CBK287827], the viability at 28.5 h, 10 µM worked out at 110%.
For the compound `CC(=O)Nc1cccc(NC(=O)CSc2ncnc3c2nnn3C)c1` [CBK287829], the viability at 28.5 h, 10 µM was found to be 91.9%.
As to `Cn1nnc2c(N3CCN(C(=O)c4ccccc4)CC3)ncnc21` [CBK287830], the viability at 28.5 h, 10 µM was 90.6%.
Same read-out and setting: the figure for `COc1ccc(C(=O)Nc2noc3nc(C)ccc23)cc1OC` [CBK287832] is 89.7%.
Turning to `Cn1nccc1C(=O)Nc1nc(-c2ccccc2)cs1` [CBK287833], the viability at 28.5 h, 10 µM was 83.8%.

The record behind these values is PMC12040169 (PLOS Biology, 2025).
